Measurements from patent US10508086B2 (CANCER RESEARCH TECHNOLOGY LIMITED, priority 2014, dated 2019).

Target: Human Full Length PARG (Homo sapiens (Human), UniProt Q86W56)
Experiment: PARG in vitro enzyme assay (TR-FRET)
Format: biochemical
Settings: read-out: PARG_EC50_ENZYME
Procedure: PARG In vitro assays were conducted in a total volume of 15 ul in a standard 384 well format. 5 ul of Human Full Length PARG (Produced internally by Astra Zeneca), used at a final reaction concentration of […], was added to 5 ul of Ribosylated PARP substrate (also produced internally by Astra Zeneca) at final reaction concentration of 4.5 nM in assay buffer (50 mM Tris pH7.4, 0.1 mg/ml BSA, 3 mM EDTA, 0.4 mM EGTA, 1 mM DTT, 0.01% Tween 20, 50 mM KCl). The reaction was incubated at room temperature for 10 minutes and then 5 ul detection reagent was added. Detection Reagent consists of 42 nM MAb Anti-6HIS XL665 (CisBio: 61 HISXLB) and 2.25 nM Streptavidin Europium Cryptate (CisBio: 610SAKLB), both at 3× working stock concentrations (final concentrations of 14 nM and 0.75 nM respectively), in a detection buffer of 50 mM Tris pH7.4, BSA at 0.1 mg/ml and KF at 100 mM. Following incubation at room temperature for 60 minutes in the dark, TR-FRET signal was measured at Ex 340 and Em 665 and Em 620. A ratio was calculated as Em665/EM620×104 for each well and used to calculate percent inhibition for test compounds.

Human Full Length PARG, sequence (Q86W56 whole entry): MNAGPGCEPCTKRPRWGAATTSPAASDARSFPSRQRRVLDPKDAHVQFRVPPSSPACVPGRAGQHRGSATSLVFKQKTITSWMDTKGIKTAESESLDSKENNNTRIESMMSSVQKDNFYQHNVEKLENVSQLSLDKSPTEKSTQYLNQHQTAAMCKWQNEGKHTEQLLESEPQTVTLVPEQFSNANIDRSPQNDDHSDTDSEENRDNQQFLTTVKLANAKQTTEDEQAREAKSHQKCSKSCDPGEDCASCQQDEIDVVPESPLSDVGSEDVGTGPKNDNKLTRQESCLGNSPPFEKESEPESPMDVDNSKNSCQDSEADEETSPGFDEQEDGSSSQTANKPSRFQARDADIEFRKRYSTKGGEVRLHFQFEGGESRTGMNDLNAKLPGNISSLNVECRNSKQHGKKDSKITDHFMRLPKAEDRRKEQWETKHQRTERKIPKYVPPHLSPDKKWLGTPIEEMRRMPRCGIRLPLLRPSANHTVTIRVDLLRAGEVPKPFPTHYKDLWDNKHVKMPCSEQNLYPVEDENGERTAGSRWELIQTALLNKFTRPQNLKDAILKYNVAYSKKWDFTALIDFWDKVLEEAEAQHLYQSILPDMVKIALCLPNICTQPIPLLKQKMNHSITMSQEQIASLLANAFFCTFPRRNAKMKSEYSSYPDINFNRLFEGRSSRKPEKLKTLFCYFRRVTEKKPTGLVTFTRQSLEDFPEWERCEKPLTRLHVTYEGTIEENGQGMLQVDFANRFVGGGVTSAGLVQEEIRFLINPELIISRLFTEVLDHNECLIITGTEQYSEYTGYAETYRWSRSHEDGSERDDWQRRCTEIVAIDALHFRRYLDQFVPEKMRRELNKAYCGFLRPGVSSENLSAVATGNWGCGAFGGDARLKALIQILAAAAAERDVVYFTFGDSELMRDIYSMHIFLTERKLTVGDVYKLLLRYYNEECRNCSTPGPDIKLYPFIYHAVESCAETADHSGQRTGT

Cn1c(=O)n(Cc2c(Cl)cccc2Cl)c2ccc(S(=O)(=O)NC3(C)CC3)cc21 [Example 1] showed an EC50 of 9.41 µM.
Compound Cn1c(=O)n(CC2CC2)c2ccc(S(=O)(=O)NC3(C)CC3)cc21 [Example 2] has an EC50 of 5 µM.
Cn1c(=O)n(Cc2ccccc2)c2ccc(S(=O)(=O)NC3(C)CC3)cc21 [Example 3] gave an EC50 of 8.28 µM.
CC1(NS(=O)(=O)c2ccc3c(c2)n(-c2ccccc2)c(=O)n3CC2CC2)CC1 [Example 4] showed an EC50 of 2.91 µM.
Compound Cn1c(=O)n(Cc2cccnc2)c2ccc(S(=O)(=O)NC3(C)CC3)cc21 [Example 5] has an EC50 of 6.76 µM.
With Cn1c(=O)n(CC2CC2(F)F)c2ccc(S(=O)(=O)NC3(C)CC3)cc21 (stereo not drawn) [Example 6] the EC50 was 8.32 µM.
With CC(C)Cn1c(=O)n(C)c2cc(S(=O)(=O)NC3(C)CC3)ccc21 [Example 7] the EC50 was 9.79 µM.
Work on CC1CC1Cn1c(=O)n(C)c2cc(S(=O)(=O)NC3(C)CC3)ccc21 (stereo not drawn) [Example 8] yielded an EC50 of 4.51 µM.
Cn1c(=O)n(CC2(C)CC2)c2ccc(S(=O)(=O)NC3(C)CC3)cc21 [Example 9] showed an EC50 of 4.04 µM.
In the case of Cn1c(=O)n(CC2(C)COC2)c2ccc(S(=O)(=O)NC3(C)CC3)cc21 [Example 10], the EC50 is reported as 8.42 µM.
Cn1c(=O)n(CC2CCC2)c2ccc(S(=O)(=O)NC3(C)CC3)cc21 [Example 11] was tested, and the EC50 was 4.67 µM.
Compound Cn1c(=O)n(CC2CCCCC2)c2ccc(S(=O)(=O)NC3(C)CC3)cc21 [Example 12] has an EC50 of 8.29 µM.
Compound Cn1c(=O)n(Cc2ccncc2)c2ccc(S(=O)(=O)NC3(C)CC3)cc21 [Example 13] has an EC50 of 7.12 µM.
Cn1c(=O)n(CC(C)(C)C)c2ccc(S(=O)(=O)NC3(C)CC3)cc21 [Example 15] was tested, and the EC50 was 6.59 µM.
Work on Cn1c(=O)n(CC2CCCC2)c2ccc(S(=O)(=O)NC3(C)CC3)cc21 [Example 16] yielded an EC50 of 3.39 µM.
C#CCn1c(=O)n(C)c2cc(S(=O)(=O)NC3(C)CC3)ccc21 [Example 17] gave an EC50 of 4.78 µM.
For C=CCn1c(=O)n(C)c2cc(S(=O)(=O)NC3(C)CC3)ccc21 [Example 18], the EC50 was 7.56 µM.
Compound Cn1c(=O)n(CCC2CC2)c2ccc(S(=O)(=O)NC3(C)CC3)cc21 [Example 19] has an EC50 of 5.36 µM.
Compound Cc1ccc(Cn2c(=O)n(C)c3cc(S(=O)(=O)NC4(C)CC4)ccc32)o1 [Example 20] has an EC50 of 3.5 µM.
Compound CC1(NS(=O)(=O)c2ccc3c(c2)N(C(=O)CN2CCNC2=O)CC3)CC1 [Example 21, N-(1-Methylcyclopropyl)-1-[2-(2-oxoimidazolidin-1-yl)acetyl]indoline-6-sulfonamide] has an EC50 of 5.23 µM.
Work on CC(=O)OCCn1c(=O)n(C)c2cc(S(=O)(=O)NC3(C)CC3)ccc21 [Example 22] yielded an EC50 of 9.18 µM.
With Cn1ccc(Cn2c(=O)n(C)c3cc(S(=O)(=O)NC4(C)CC4)ccc32)n1 [Example 23] the EC50 was 8.83 µM.
In the case of CC(=O)n1c(=O)n(C)c2ccc(S(=O)(=O)NC3(C)CC3)cc21 [Example 24], the EC50 is reported as 2.8 µM.
CN1CCN(CC(=O)N2CCc3ccc(S(=O)(=O)NC4(C)CC4)cc32)C1=O [Example 25, N-(1-Methylcyclopropyl)-1-[2-(3-methyl-2-oxo-imidazolidin-1-yl)acetyl]indoline-6-sulfonamide] gave an EC50 of 8.92 µM.
Cn1c(=O)n(-c2ccsc2)c2cc(S(=O)(=O)NC3(C)CC3)ccc21 [Example 26] was tested, and the EC50 was 6.99 µM.
Cn1c(=O)n(C(=O)c2ccccc2)c2cc(S(=O)(=O)NC3(C)CC3)ccc21 [Example 27] was tested, and the EC50 was 0.925 µM.
Compound Cn1c(=O)n(C(=O)C2CCCCC2)c2cc(S(=O)(=O)NC3(C)CC3)ccc21 [Example 28] has an EC50 of 0.352 µM.
Cc1ccc(C(=O)n2c(=O)n(C)c3ccc(S(=O)(=O)NC4(C)CC4)cc32)cc1 [Example 29] showed an EC50 of 4.46 µM.
Cc1cccc(C(=O)n2c(=O)n(C)c3ccc(S(=O)(=O)NC4(C)CC4)cc32)c1 [Example 30] showed an EC50 of 9.57 µM.
Cc1ccccc1C(=O)n1c(=O)n(C)c2ccc(S(=O)(=O)NC3(C)CC3)cc21 [Example 31] was tested, and the EC50 was 4.91 µM.
For CCNC(=O)n1c(=O)n(C)c2ccc(S(=O)(=O)NC3(C)CC3)cc21 [Example 32], the EC50 was 6.86 µM.
Cc1cccc(Cn2c(=O)n(C)c3cc(S(=O)(=O)NC4(C)CC4)ccc32)c1 [Example 33] showed an EC50 of 6.31 µM.
Compound Cc1ccc(Cn2c(=O)n(C)c3cc(S(=O)(=O)NC4(C)CC4)ccc32)cc1 [Example 34] has an EC50 of 6.21 µM.
With COc1ccccc1Cn1c(=O)n(C)c2cc(S(=O)(=O)NC3(C)CC3)ccc21 [Example 35] the EC50 was 7.69 µM.
In the case of COc1cccc(Cn2c(=O)n(C)c3cc(S(=O)(=O)NC4(C)CC4)ccc32)c1 [Example 36], the EC50 is reported as 6.17 µM.
With COc1ccc(Cn2c(=O)n(C)c3cc(S(=O)(=O)NC4(C)CC4)ccc32)cc1 [Example 37] the EC50 was 3.15 µM.
Cn1c(=O)n(Cc2cccc(Cl)c2)c2ccc(S(=O)(=O)NC3(C)CC3)cc21 [Example 38] was tested, and the EC50 was 5.71 µM.
Work on Cn1c(=O)n(Cc2ccc(Cl)cc2)c2ccc(S(=O)(=O)NC3(C)CC3)cc21 [Example 39] yielded an EC50 of 3.74 µM.
Cn1c(=O)n(Cc2ccccc2F)c2ccc(S(=O)(=O)NC3(C)CC3)cc21 [Example 40] showed an EC50 of 6.3 µM.
For Cn1c(=O)n(Cc2cccc(F)c2)c2ccc(S(=O)(=O)NC3(C)CC3)cc21 [Example 41], the EC50 was 5.77 µM.
Cn1c(=O)n(Cc2ccc(F)cc2)c2ccc(S(=O)(=O)NC3(C)CC3)cc21 [Example 42] was tested, and the EC50 was 2.35 µM.
Compound Cn1c(=O)n(Cc2ccccc2C#N)c2ccc(S(=O)(=O)NC3(C)CC3)cc21 [Example 43] has an EC50 of 5.25 µM.
Cn1c(=O)n(Cc2cccc(C#N)c2)c2ccc(S(=O)(=O)NC3(C)CC3)cc21 [Example 44] gave an EC50 of 3.35 µM.
Cn1c(=O)n(Cc2ccc(C#N)cc2)c2ccc(S(=O)(=O)NC3(C)CC3)cc21 [Example 45] showed an EC50 of 3.2 µM.
With Cn1c(=O)n(Cc2ccccc2C(F)(F)F)c2ccc(S(=O)(=O)NC3(C)CC3)cc21 [Example 46] the EC50 was 9.75 µM.
Cn1c(=O)n(Cc2c(F)cccc2F)c2ccc(S(=O)(=O)NC3(C)CC3)cc21 [Example 47] showed an EC50 of 5.72 µM.
Work on Cn1c(=O)n(Cc2cc(Cl)cc(Cl)c2)c2ccc(S(=O)(=O)NC3(C)CC3)cc21 [Example 48] yielded an EC50 of 7.83 µM.
Cc1cc(C)cc(Cn2c(=O)n(C)c3cc(S(=O)(=O)NC4(C)CC4)ccc32)c1 [Example 49] was tested, and the EC50 was 5.07 µM.
COc1cc(Cn2c(=O)n(C)c3cc(S(=O)(=O)NC4(C)CC4)ccc32)cc(OC)c1 [Example 50] showed an EC50 of 4.91 µM.
In the case of Cn1c(=O)n(Cc2cc(F)cc(F)c2)c2ccc(S(=O)(=O)NC3(C)CC3)cc21 [Example 51], the EC50 is reported as 5.26 µM.
For Cn1c(=O)n(-c2ccco2)c2cc(S(=O)(=O)NC3(C)CC3)ccc21 [Example 52], the EC50 was 5.16 µM.
Work on Cn1c(=O)n(-c2nccs2)c2cc(S(=O)(=O)NC3(C)CC3)ccc21 [Example 53] yielded an EC50 of 2.86 µM.
Cn1c(=O)n(-c2ccc(C=O)s2)c2cc(S(=O)(=O)NC3(C)CC3)ccc21 [Example 54] gave an EC50 of 9.07 µM.
CNC(=O)n1c(=O)n(C)c2ccc(S(=O)(=O)NC3(C)CC3)cc21 [Example 55] showed an EC50 of 7.05 µM.
Compound Cn1c(=O)n(C)c2cc(S(=O)(=O)NC3(C)CC3)c(F)cc21 [Example 56, 6-Fluoro-1,3-dimethyl-N-(1-methylcyclopropyl)-2-oxo-benzimidazole-5-sulfonamide] has an EC50 of 8.3 µM.
In the case of Cn1c(=O)n(-c2ccccc2)c2ccc(S(=O)(=O)NC3(C)CC3)cc21 [Example 57], the EC50 is reported as 5.63 µM.
For Cn1c(=O)n(Cc2ccc(C#N)c(F)c2)c2ccc(S(=O)(=O)NC3(C)CC3)cc21 [Example 58], the EC50 was 4.65 µM.
Work on Cn1c(=O)n(Cc2ccc(C(N)=O)cc2)c2ccc(S(=O)(=O)NC3(C)CC3)cc21 [Example 59] yielded an EC50 of 2.66 µM.
With CNC(=O)c1noc(Cn2c(=O)n(C)c3cc(S(=O)(=O)NC4(C)CC4)ccc32)n1 [Example 60] the EC50 was 5.96 µM.
With Cn1c(=O)n(Cc2cccc(C(N)=O)c2)c2ccc(S(=O)(=O)NC3(C)CC3)cc21 [Example 61] the EC50 was 6.06 µM.
Cn1c(=O)n(Cc2ccc([N+](=O)[O-])o2)c2ccc(S(=O)(=O)NC3(C)CC3)cc21 [Example 62] showed an EC50 of 5.9 µM.
CC(=O)Nc1ccc(Cn2c(=O)n(C)c3cc(S(=O)(=O)NC4(C)CC4)ccc32)cc1 [Example 63] was tested, and the EC50 was 4.17 µM.
Cn1nccc1Cn1c(=O)n(C)c2cc(S(=O)(=O)NC3(C)CC3)ccc21 [Example 64] was tested, and the EC50 was 8.5 µM.
Cc1ncc(Cn2c(=O)n(C)c3cc(S(=O)(=O)NC4(C)CC4)ccc32)s1 [Example 65] was tested, and the EC50 was 9.8 µM.
CCOC(=O)n1c(=O)n(C)c2ccc(S(=O)(=O)NC3(C)CC3)cc21 [Example 66] gave an EC50 of 1.35 µM.
Cn1c(=O)n(-c2ccc(/C=C/C(=O)O)o2)c2cc(S(=O)(=O)NC3(C)CC3)ccc21 [Example 67, (E)-3-[5-[3-Methyl-6-[(1-methylcyclopropyl)sulfamoyl]-2-oxo-benzimidazol-1-yl]-2-furyl]prop-2-enoic acid] showed an EC50 of 4.45 µM.
With Cc1nnc(-n2c(=O)n(C)c3ccc(S(=O)(=O)NC4(C)CC4)cc32)s1 [Example 68] the EC50 was 0.902 µM.
Cn1c(=O)n(-c2ncc(/C=C/C(=O)O)s2)c2cc(S(=O)(=O)NC3(C)CC3)ccc21 [Example 69, (E)-3-[2-[3-methyl-6-[(1-methylcyclopropyl)sulfamoyl]-2-oxo-benzimidazol-1-yl]thiazol-5-yl]prop-2-enoic acid] showed an EC50 of 3.21 µM.
Cn1c(=O)n(-c2ncc(CCC(=O)O)s2)c2cc(S(=O)(=O)NC3(C)CC3)ccc21 [Example 70, 3-[2-[3-Methyl-6-[(1-methylcyclopropyl)sulfamoyl]-2-oxo-benzimidazol-1-yl]thiazol-5-yl]propanoic acid] was tested, and the EC50 was 0.804 µM.
